# In PMC8207662, “Divergent camptothecin biosynthetic pathway in Ophiorrhiza pumila” (BMC Biology, 2021):
# Positions count from the first letter of the chain named.
# B1: OpSTR (Ophiorrhiza pumila) (protein)
# chain: SPEFFEFIEAPSYGPNAYAFDSDGELYASVEDGRIIKYDKPSNKFLTHAVASPIWNNALCENNTNQDLKPLCGRVYDFGFHYETQRLYIADCYFGLGFVGPDGGHAIQLATSGDGVEFKWLYALAIDQQAGFVYVTDVSTKYDDRGVQDIIRINDTTGRLIKYDPSTEEVTVLMKGLNIPGGTEVSKDGSFVLVGEFASHRILKYWLKGPKANTSEFLLKVRGPGNIKRTKDGDFWVASSDNNGITVTPRGIRFDEFGNILEVVAIPLPYKGEHIEQVQEHDGALFVGSLFHEFVGILHNYKSSVDHHQEKNSGGLNASFKEFSSF
# notes: recombinant from pET30a in E. coli BL21(DE3), Ni resin purified
# Columns and labels:
# OpSLS6 = biological target: T1, OpSLS6 (Ophiorrhiza pumila, UniProt A0A8F3BQ54); assay: yeast microsome assay, HPLC of secologanin; type: biochemical; conditions: 1 mM NADPH; 30 °C
# T1 construct: gene SLS6; expressed from pESC-Leu in yeast WAT11, microsomes
# T1 sequence (A0A8F3BQ54 1-516): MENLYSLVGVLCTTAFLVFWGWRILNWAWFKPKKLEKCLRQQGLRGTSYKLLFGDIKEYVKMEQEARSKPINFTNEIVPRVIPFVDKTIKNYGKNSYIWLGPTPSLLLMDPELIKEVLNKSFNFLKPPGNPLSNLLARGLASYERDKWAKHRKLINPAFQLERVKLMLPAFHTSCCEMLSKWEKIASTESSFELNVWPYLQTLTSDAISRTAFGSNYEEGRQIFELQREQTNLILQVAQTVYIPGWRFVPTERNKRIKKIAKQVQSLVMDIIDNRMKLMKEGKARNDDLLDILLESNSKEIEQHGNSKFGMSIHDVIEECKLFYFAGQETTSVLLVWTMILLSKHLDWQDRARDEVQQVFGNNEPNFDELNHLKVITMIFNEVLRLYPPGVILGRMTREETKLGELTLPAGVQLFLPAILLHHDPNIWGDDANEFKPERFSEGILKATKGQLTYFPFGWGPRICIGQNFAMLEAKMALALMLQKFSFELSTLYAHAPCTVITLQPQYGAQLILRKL
# OpSLS3 = biological target: T2, OpSLS3 (Ophiorrhiza pumila, UniProt A0A8F3BRG6); assay: yeast microsome assay, HPLC of secologanin; type: biochemical; conditions: 1 mM NADPH; 30 °C
# T2 construct: gene SLS3; expressed from pESC-Leu in yeast WAT11, microsomes
# T2 sequence (A0A8F3BRG6 1-521): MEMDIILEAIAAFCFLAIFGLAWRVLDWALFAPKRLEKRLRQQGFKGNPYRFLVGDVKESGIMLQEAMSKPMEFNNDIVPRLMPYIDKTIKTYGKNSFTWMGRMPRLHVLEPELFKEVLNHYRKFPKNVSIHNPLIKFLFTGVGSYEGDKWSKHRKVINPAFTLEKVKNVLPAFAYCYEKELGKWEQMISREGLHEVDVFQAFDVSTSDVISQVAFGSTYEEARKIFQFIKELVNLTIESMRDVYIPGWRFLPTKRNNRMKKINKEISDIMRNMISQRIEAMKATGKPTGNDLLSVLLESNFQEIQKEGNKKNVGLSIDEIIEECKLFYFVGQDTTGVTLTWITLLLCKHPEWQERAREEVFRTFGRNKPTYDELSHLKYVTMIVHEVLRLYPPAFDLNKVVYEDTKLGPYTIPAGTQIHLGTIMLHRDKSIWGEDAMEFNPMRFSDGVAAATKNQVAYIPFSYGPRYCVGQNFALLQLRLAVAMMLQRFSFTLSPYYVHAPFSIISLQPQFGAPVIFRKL
# OpSLS5 = biological target: T3, OpSLS5 (Ophiorrhiza pumila, UniProt A0A8F3BPP9); assay: yeast microsome assay, HPLC of secologanin; type: biochemical; conditions: 1 mM NADPH; 30 °C
# T3 construct: gene SLS5; expressed from pESC-Leu in yeast WAT11, microsomes
# T3 sequence (A0A8F3BPP9 1-521): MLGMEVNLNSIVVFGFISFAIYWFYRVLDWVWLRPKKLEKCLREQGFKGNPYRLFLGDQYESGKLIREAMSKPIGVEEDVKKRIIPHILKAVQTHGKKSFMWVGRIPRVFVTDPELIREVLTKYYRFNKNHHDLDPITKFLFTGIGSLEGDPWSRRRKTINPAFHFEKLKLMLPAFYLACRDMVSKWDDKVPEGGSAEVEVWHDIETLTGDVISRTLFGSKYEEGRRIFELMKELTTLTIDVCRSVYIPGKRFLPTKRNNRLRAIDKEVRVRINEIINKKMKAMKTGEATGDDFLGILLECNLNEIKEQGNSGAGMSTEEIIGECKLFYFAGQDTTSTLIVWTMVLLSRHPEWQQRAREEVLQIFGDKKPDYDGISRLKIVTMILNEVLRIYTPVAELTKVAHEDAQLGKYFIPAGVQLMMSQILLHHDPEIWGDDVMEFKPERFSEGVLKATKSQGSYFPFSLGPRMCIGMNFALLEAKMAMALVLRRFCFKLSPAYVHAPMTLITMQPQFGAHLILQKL
# OpSLS4 = biological target: T4, OpSLS4 (Ophiorrhiza pumila, UniProt A0A8F3BRW9); assay: yeast microsome assay, HPLC of secologanin; type: biochemical; conditions: 1 mM NADPH; 30 °C
# T4 construct: gene SLS4; expressed from pESC-Leu in yeast WAT11, microsomes
# T4 sequence (A0A8F3BRW9 1-517): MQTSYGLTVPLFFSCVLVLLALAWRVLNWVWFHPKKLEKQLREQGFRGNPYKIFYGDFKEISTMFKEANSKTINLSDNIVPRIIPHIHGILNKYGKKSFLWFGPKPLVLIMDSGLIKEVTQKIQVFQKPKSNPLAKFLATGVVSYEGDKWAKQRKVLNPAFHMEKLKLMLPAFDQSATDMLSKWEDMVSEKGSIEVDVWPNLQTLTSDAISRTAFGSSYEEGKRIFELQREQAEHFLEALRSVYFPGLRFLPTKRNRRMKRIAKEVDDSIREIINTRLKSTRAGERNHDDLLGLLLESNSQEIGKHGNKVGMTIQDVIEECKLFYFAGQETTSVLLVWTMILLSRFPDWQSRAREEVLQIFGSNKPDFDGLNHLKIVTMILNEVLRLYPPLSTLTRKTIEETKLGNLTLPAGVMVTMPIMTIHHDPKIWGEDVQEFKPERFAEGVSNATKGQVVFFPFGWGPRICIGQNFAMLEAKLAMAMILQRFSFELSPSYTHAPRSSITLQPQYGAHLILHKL
# OpSLS1 = biological target: T5, OpSLS1 (Ophiorrhiza pumila, UniProt A0A8F2YIW0); assay: yeast microsome assay, HPLC of secologanin; type: biochemical; conditions: 1 mM NADPH; 30 °C
# T5 construct: gene SLS1; expressed from pESC-Leu in yeast WAT11, microsomes
# T5 sequence (A0A8F2YIW0 1-522): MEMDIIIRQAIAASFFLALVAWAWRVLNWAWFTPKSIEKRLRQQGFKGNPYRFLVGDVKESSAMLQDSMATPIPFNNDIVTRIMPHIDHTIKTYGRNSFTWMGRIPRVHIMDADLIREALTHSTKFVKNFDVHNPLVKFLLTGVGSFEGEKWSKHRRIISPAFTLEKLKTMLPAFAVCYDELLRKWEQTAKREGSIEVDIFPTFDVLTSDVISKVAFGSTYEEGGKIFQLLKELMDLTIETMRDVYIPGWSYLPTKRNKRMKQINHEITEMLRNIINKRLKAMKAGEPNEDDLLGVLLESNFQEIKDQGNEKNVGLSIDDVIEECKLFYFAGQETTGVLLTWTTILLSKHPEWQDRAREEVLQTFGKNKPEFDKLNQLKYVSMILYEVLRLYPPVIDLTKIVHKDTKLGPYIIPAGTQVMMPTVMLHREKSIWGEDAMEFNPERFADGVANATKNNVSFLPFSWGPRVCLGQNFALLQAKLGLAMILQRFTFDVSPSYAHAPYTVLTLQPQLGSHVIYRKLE
# CaSTR1 = biological target: T6, CaSTR1 (Camptotheca acuminata, UniProt A0A8F2YIY3); assay: LC-MS of strictosidine formation; type: biochemical; conditions: tryptamine co-substrate
# T6 construct: gene STR1; recombinant from pET30a in E. coli BL21(DE3), Ni resin purified
# T6 sequence (A0A8F2YIY3 73-370): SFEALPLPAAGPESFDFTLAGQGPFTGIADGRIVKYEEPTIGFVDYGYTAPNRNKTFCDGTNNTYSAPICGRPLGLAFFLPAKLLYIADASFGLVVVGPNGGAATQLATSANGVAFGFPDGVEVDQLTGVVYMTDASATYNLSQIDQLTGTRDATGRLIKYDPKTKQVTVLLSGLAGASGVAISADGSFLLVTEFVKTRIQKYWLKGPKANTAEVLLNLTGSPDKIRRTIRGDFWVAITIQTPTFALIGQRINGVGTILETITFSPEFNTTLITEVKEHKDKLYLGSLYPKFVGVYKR
# CaSTR2 [1] = biological target: T7, CaSTR2 (Camptotheca acuminata, UniProt A0A8F2YJ04); assay: LC-MS of strictosidine formation; type: biochemical; conditions: tryptamine co-substrate
# T7 construct: gene STR2; recombinant from pET30a in E. coli BL21(DE3), Ni resin purified
# T7 sequence (A0A8F2YJ04 32-329): T6 sequence (A0A8F2YIY3 73-370) with P39S, S66L, S91G, A185V, I238V, I240V, H279Y
# CaSTR3 = biological target: T8, CaSTR3 (Camptotheca acuminata, UniProt A0A8F2YIV8); assay: LC-MS of strictosidine formation; type: biochemical; conditions: tryptamine co-substrate
# T8 construct: gene STR3; recombinant from pET30a in E. coli BL21(DE3), Ni resin purified
# T8 sequence (A0A8F2YIV8 31-330): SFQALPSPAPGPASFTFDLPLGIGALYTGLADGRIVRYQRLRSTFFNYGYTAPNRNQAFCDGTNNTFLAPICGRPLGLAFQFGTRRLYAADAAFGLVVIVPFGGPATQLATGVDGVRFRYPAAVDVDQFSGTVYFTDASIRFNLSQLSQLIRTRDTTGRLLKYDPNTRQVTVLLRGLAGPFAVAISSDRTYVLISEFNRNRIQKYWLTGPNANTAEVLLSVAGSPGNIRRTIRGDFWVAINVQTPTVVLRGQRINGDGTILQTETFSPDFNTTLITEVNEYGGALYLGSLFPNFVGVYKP
# OpLAMT [2] = biological target: T9, OpLAMT (Ophiorrhiza pumila, UniProt A0A8F2YIU9); assay: HPLC assay, loganin formation; type: biochemical; conditions: 1 mM SAM; pH 7.5; 30 °C
# T9 construct: gene LAMT; recombinant from pET-30a in E. coli BL21(DE3), Ni resin purified
# T9 sequence (A0A8F2YIU9 1-381): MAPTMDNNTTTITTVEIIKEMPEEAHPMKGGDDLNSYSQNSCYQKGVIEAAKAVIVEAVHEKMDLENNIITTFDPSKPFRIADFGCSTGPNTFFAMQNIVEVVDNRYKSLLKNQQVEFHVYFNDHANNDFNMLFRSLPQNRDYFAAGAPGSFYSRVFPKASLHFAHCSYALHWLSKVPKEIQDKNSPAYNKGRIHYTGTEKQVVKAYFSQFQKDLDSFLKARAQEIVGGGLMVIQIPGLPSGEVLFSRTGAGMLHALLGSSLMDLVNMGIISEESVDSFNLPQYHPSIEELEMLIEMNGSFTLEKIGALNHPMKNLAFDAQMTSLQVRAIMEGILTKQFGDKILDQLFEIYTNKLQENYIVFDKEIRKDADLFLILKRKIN
# OpLAMT [3] = biological target: T9, OpLAMT; assay: assay of secologanin formation, printed as microsome assay with recombinant OpLAMT; type: biochemical; conditions: SAM
# CaSTR2 [4] = biological target: T7, CaSTR2; assay: LC-MS of strictosidinic acid formation; type: biochemical; conditions: tryptamine co-substrate
# [5] = substrate: C=C[C@H]1[C@H](O[C@@H]2O[C@H](CO)[C@@H](O)[C@H](O)[C@H]2O)OC=C(C(=O)OC)[C@H]1CC=O; assay: LC-MS of strictosidine formation; type: biochemical, Ophiorrhiza pumila; conditions: tryptamine co-substrate
# Source text: LC-MS of strictosidine formation on OpSTR | we furtherly characterized the kinetic parameters of OpSTR using LCMS
molecule,measurement,setting,value
COC(=O)C1=CO[C@@H](O[C@@H]2O[C@H](CO)[C@@H](O)[C@H](O)[C@H]2O)[C@@H]2[C@@H](C)[C@@H](O)C[C@H]12 [loganin],"yeast microsome assay, HPLC of secologanin",OpSLS6,"five OpSLS proteins (OpSLS1, OpSLS3, OpSLS4, OpSLS5, OpSLS6) exhibited secologanin synthase activity"
same,"yeast microsome assay, HPLC of secologanin",OpSLS3,"five OpSLS proteins (OpSLS1, OpSLS3, OpSLS4, OpSLS5, OpSLS6) exhibited secologanin synthase activity"
same,"yeast microsome assay, HPLC of secologanin",OpSLS5,"five OpSLS proteins (OpSLS1, OpSLS3, OpSLS4, OpSLS5, OpSLS6) exhibited secologanin synthase activity"
same,"yeast microsome assay, HPLC of secologanin",OpSLS4,"five OpSLS proteins (OpSLS1, OpSLS3, OpSLS4, OpSLS5, OpSLS6) exhibited secologanin synthase activity"
same,"yeast microsome assay, HPLC of secologanin",OpSLS1,"five OpSLS proteins (OpSLS1, OpSLS3, OpSLS4, OpSLS5, OpSLS6) exhibited secologanin synthase activity"
C=C[C@H]1[C@H](O[C@@H]2O[C@H](CO)[C@@H](O)[C@H](O)[C@H]2O)OC=C(C(=O)OC)[C@H]1CC=O [secologanin],LC-MS of strictosidine formation,CaSTR1,"NnSTR, CaSTR1, and CaSTR3 displayed substrate specificity towards secologanin only"
same,LC-MS of strictosidine formation,CaSTR2 [1],OpSTR and CaSTR2 used both secologanin and secologanic acid activity as their substrates
same,LC-MS of strictosidine formation,CaSTR3,"NnSTR, CaSTR1, and CaSTR3 displayed substrate specificity towards secologanin only"
C[C@@H]1[C@H]2[C@H](O[C@@H]3O[C@H](CO)[C@@H](O)[C@H](O)[C@H]3O)OC=C(C(=O)O)[C@H]2C[C@@H]1O [loganic acid],"HPLC assay, loganin formation",OpLAMT [2],The purified recombinant protein converted loganic acid and S-adenosyl methionine (SAM) into loganin
C=C[C@@H]1C(CC=O)C(C(=O)O)=CO[C@H]1O[C@@H]1O[C@H](CO)[C@@H](O)[C@H](O)[C@H]1O (stereo partly drawn) [secologanic acid],"assay of secologanin formation, printed as microsome assay with recombinant OpLA",OpLAMT [3],a microsome assay with secologanic acid as a substrate for recombinant OpLAMT revealed methylation
same,LC-MS of strictosidinic acid formation,CaSTR2 [4],OpSTR and CaSTR2 used both secologanin and secologanic acid activity as their substrates
B1,Km,[5],382 ± 68.1 µM
same,Vmax,[5],0.0377 µmol/min/mg
same,kcat,[5],0.0524 s⁻¹
same,kcat/Km,[5],137 M⁻¹ s⁻¹
